Where no end group is shown, it is not given here. The star is where a group is joined. Biotin = O=C1N[C@H]2[C@H](CS[C@H]2CCCCC(=O)*)N1
What was measured:
CDPK1 = test: In vitro phosphorylation of CTDs by CDPK1; assay type: biochemical; design: key: Phosphorylation (+) was confirmed by electrospray-mass spectrometry; details: 10 μM kinase, 100 μM substrate, 1 mM ATP, 30°C, 3 hours; electrospray-mass spectrometry
Protocol: To examine whether or not phosphorylation affected the ability of the CTDs to bind aldolase, we first looked at their ability to be phosphorylated by serine/threonine kinases in vitro. Two kinases, CDPK1 and PKA, which have been implicated in phosphorylation of glideosome proteins, were chosen for this analysis (Table 2).
(§1) The phosphorylation of MTRAP and TRAP CTDs expressed as fusion proteins with GST was evaluated in vitro by ^32P incorporation (Fig 1A) and by electrospray (ES) mass spectrometry and collision-induced dissociation (CID) fragmentation analysis. […] Using ES-MS and CID it was determined that both CDPK1 and PKA phosphorylated AMA1 at Ser610 (S1B and S2B Figs), the residue implicated in earlier studies. […] CDPK1 but not PKA phosphorylated EBA140 (Table 2, S2E Fig), the exact sites of which were not determined (S1E Fig). […]
(§2) Phosphorylation assays were performed using 10 μM recombinant CDPK1 [37], PKA (Promega), or CK2 (New England Biolabs) in kinase buffer (20 mM Tris-HCl pH 8.0, 20 mM MgCl2, with or without 1 mM CaCl2) and 1 mM ATP at 30°C for 3 hours with 100 μM substrate protein. Products were analysed by mass spectrometry and used in binding assays (see below). […]
Non-phosphorylated, phosphorylated and biotinylated polypeptides were analysed by electrospray (ES)-mass spectrometry and collision-induced dissociation (CID) fragmentation pathway analysis. […]

P. falciparum aldolase = target: T1, P. falciparum aldolase (Plasmodium falciparum, UniProt Q7KQL9); test: biochemical; assay type: binding; details: for increase in affinity for aldolase following phosphorylation: phosphorylated versus unmodified CTD, from Kd values of Table 3
T1 construct: made in house
T1 sequence (Q7KQL9 whole entry): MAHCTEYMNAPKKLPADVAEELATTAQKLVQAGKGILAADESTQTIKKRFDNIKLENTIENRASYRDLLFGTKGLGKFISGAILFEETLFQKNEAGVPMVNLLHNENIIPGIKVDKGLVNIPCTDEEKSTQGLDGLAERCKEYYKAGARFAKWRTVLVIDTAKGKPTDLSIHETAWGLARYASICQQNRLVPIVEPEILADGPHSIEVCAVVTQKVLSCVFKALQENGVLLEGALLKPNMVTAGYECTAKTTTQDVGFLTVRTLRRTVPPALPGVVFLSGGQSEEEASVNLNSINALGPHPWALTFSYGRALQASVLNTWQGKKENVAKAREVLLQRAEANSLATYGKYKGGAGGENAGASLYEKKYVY
From the text: CTDs of four classes of type 1 membrane protein (AMA1 and the TRAP, EBL and RH families) that are potential adhesins or host cell invasion proteins derived from apical organelles, and present in the merozoite plasma membrane during invasion, were examined for their ability to bind to aldolase using bio-layer interferometry. Streptavidin-coated biosensors were loaded with biotinylated synthetic peptides or recombinant proteins representing either the full length CTDs or shorter C-terminal sequences (Table 1) and titrated with increasing aldolase concentrations. This analysis enabled the calculation of a dissociation constant (Kd) for each pair of proteins as a measure of the strength of interaction between them.
The effect of the CTD phosphorylation on aldolase binding was investigated using biolayer interferometry using phosphorylated synthetic peptides or peptides phosphorylated in vitro (Table 3).
Protein interactions were analysed by biolayer interferometry using the Octet Red system (ForteBio) at 25°C in 96-well microplates, as described previously. All assays were performed in 100 mM Tris-HCl pH 8.0, according to the manufacturer’s instructions. A baseline was established over 1 min, and biotinylated samples were loaded onto streptavidin sensors for 1 min. The sensors were washed for 1 min and then incubated with aldolase at different concentrations (0.05–250 μM) for 1 min, followed by a dissociation phase over 5 min. The experiments were performed in duplicate or triplicate depending on the experiment. The data were analysed as described previously.

CK2 = test: In vitro phosphorylation of CTDs by CK2; assay type: biochemical; details: 10 μM kinase, 100 μM substrate, 1 mM ATP, 30°C, 3 hours; ES-MS and CID
Protocol: as §1, with “analysis. […] MTRAP CTD produced as either a recombinant protein or as a synthetic peptide was also phosphorylated by PKA at the same two positions (S2A Fig).” for “analysis.”
as §2
Non-phosphorylated, phosphorylated and biotinylated polypeptides were analysed by electrospray (ES)-mass spectrometry and collision-induced dissociation (CID) fragmentation pathway analysis. […] Phosphorylation sites were determined using stand-alone nanospray on an LTQ Orbitrap Velos (Thermo Fisher Scientific). […]

Biotin-KNNKQEYDKEQEKQQQNDFVCDNNKMDDKSTQKYGRNQEEVMEIFFDNDYI [RH1 2921–2971]
CTD peptide phosphorylation by CDPK1 in vitro (CDPK1): +
Kd (P. falciparum aldolase; biolayer interferometry (Octet Red), biotinylated CTD on streptavidin sensor, aldolase 0.05–250 μM, 100 mM Tris-HCl pH 8.0, 25°C, mean of duplicate reactions): 6.1 µM
increase in affinity for aldolase following phosphorylation (P. falciparum aldolase): around 2 fold

Biotin-KNSNEPHHIFNIFQKEFSEADNAHSEEKEEYLPVYFDEVEDEVEDEVEDEDENENEVENENEDFNDI [RH4, cytoplasmic domain of RH4, residues 1650–1716]
increase in affinity for aldolase following phosphorylation (P. falciparum aldolase): no increase in affinity
phosphorylation by CK2 in vitro (CK2): one phosphate group
